Reference: US20070191493A1, “Use of n-alkanols as activators of the cftr channel” (priority 2003, published 2007)

Key:
CHO-CFTR(-) cells = test: 125I iodide efflux in CHO-CFTR(-) control cells that do not express CFTR; assay type: cell-based, Chinese hamster; conditions: octan-1-ol 0.1 to 5 mM, FSK 5 μM, A23187 2 μM
CFTR channel [1] = target: T1, CFTR channel (Homo sapiens, UniProt P13569); test: 125I radioactive iodide efflux in CHO-CFTR(+) cells; assay type: cell-based; parameters: expressed in transfected cells; host or cells: CHO (Chinese hamster ovary) cells, CHO-CFTR(+); conditions: for activation of CFTR (125I efflux), in words: n-alkanols 1 mM, FSK 1 μM, A23187 2 μM, α-GA 10 and 100 μM; for effect of inhibitor on activated 125I efflux: CHO-CFTR(+) cells stimulated by octan-1-ol 1 mM, FSK 1 μM or both, glibenclamide 100 μM, H-89 30 μM, PKC inhibitor; for order of activation of CFTR by n-alkanols: 1 mM, 125I efflux or patch-clamp
Description: The cells are cultured in 24-well plates with a dilution to 1/10 after passage. […] The operation is repeated every 30 s for 2 to 6 min. […] All the samples are counted in a gamma counter (Kontron). The precipitated proteins are solubilized in 0.1N NaOH and quantified using a calorimetric test.
(§1) The tracer contained in the cell layer at the beginning of the efflux is calculated as the sum of the samples and of the extracts counted. The efflux curves are constructed by expressing the percentage of the content remaining in the cell layer (I %) with respect to time. The stimulated or nonstimulated efflux rate constants (k, min^−1) are determined by smoothing the efflux curves to a monoexponential function I %=100*exp(−kt) using a linear regression of the neperian logarithm of the data, k is used to calculate the iodide released into the medium with respect to time. The hypothesis is made that, in the presence of a stimulator, the efflux is the sum of two iodide effluxes occurring in parallel: a basal efflux and a stimulated efflux characterized, respectively, by the constants kb and ks. The total net efflux is then described by the equation It^%=100*(1−exp(−ktt)) where kt is the sum of kb and ks. Finally, ks calculated as kt−kb is used to establish a dose-response relationship for antagonists. The data is expressed as means ±SD, and the t-test is used to determine the significances. The concentration-response curves for agonists or for antagonists are smooth using the hyperbolic equation Y=Ymax*X/(EC5C+X), where Y is the response. Y begins at the basal level and progresses to the plateau (Ymax), X is the concentration and the half-effect values (EC are calculated using GraphPad Prism v3.0 (GraphPad software)).

[2] = target: T2, ΔF508 mutated CFTR channel (Homo sapiens, UniProt P13569, DEL508-508); test: iodide efflux in JME/CF15 human bronchial epithelial cells from cystic fibrosis patients; assay type: cell-based; conditions: glibenclamide 100 μM, DIDS 500 μM
T2 construct: epithelial cells extracted from respiratory airways of patients suffering from cystic fibrosis (homozygous ΔF508); endogenous in cells; host or cells: JME/CF15 human airway epithelial cells (homozygous ΔF508)
Description: (§2) The CFTR studies are also carried out on Calu-3 cells (ATCC No. HTB-55), which are human pulmonary epithelial cells endogenously expressing the CFTR channel. These cells are cultured under the same culture conditions as the CHO cells. The study of the mutated CFTR channel is carried out on JME/CF15 cells, which are epithelial cells extracted from respiratory airways of patients suffering from cystic fibrosis (homozygous ΔF508) (Jefferson et al., 1990). These cells therefore express the ΔF508 mutated CFTR channel. These cells are cultured under the same conditions as above, but the culture medium is supplemented with a hormone mixture containing: adenine (180 μM), insulin (5 μg/ml), transferrin (5 μg/ml), hydrocortisone (1.1 μM), triiodothyronine (2 nM), epinephrine (5.5 μM), epidermal growth factor (1.64 nM).
(§3) This technique makes it possible to follow the kinetics of exit of the ^125I radioactive iodide. The cells are cultured in 24-well plates with a dilution to 1/10 after passage. On the fourth day of culture, the drugs to be tested are dissolved in solution according to the desired concentration, at 37° C., in medium B, at pH 7.4, containing, in mM: 137 NaCl, 5.36 KCl, 0.8 mM MgCl2, 1.8 mM CaCl2, 5.5 glucose and 10 HEPES-NaOH. The wells are washed 4 times with 500 μl of medium B. The solution is subsequently replaced with 500 μl of loading solution containing 1 μM KI and 0.5 μCi of ^125INa/ml for 30 min. The kinetics of exit of ^125I are determined after having eliminated the loading solution and washed the wells 4 times with 500 μl of medium B. For the ^125I exit kinetics, 500 μl of medium B containing or not containing the molecules to be tested are incubated for 30 sec in the wells and recovered in a hemolysis tube, so as to be replaced with 500 μl of medium B containing or not containing the molecules to be tested. The operation is repeated every 30 s for 2 to 6 min. At the end of the efflux, the intracellular ions are extracted by adding 1 ml of trichloroacetic acid (7.5%) to the cell layer. All the samples are counted in a gamma counter (Kontron). The precipitated proteins are solubilized in 0.1N NaOH and quantified using a calorimetric test.
as §1, with “The concentration-response curves for agonists or for antagonists are smooth using the hyperbolic equation Y=Ymax*X/(EC5C+X), where Y is the response.” left out

[3] = target: T3, human CFTR channel endogenously expressed in Calu-3 (Homo sapiens, UniProt P13569); test: iodide efflux in Calu-3 human bronchial epithelial cells; assay type: cell-based; conditions: Calu-3; 1 hour treatment; glibenclamide 100 μM, DIDS 500 μM
T3 construct: human pulmonary epithelial cells endogenously expressing the CFTR channel; host or cells: Calu-3 human pulmonary epithelial cells
Description: as §2, §3
as §1, with “The concentration-response curves for agonists or for antagonists are smooth using the hyperbolic equation Y=Ymax*X/(EC5C+X), where Y is the response.” left out

intracellular cAMP level = test: total intracellular cAMP assay in CHO-CFTR(+) cells; assay type: cell-based, Chinese hamster; conditions: 5 min, FSK 1 or 5 μM, alcohols 1 mM
Description: The CHO cells are cultured for four days in a 24-well culture plate. On the fourth day of culture, each well is rinsed twice with 500 μl of medium B, and 500 μl of this buffer containing the molecule to be tested are added to each well. After incubation at 37° C. for 5 min, the reaction is stopped by adding a cell lysis buffer. The cell lysis is verified with Trypan blue. The amount of cAMP contained in the cells is determined using the Enzyme Immuno Assay kit (Amersham Biotechnology). The cAMP level is expressed in pmol/well ±SD.

CFTR channel [4] = target: T1, CFTR channel; test: whole-cell patch-clamp in CHO-CFTR(+) cells; assay type: cell-based; parameters: expressed in transfected cells; host or cells: CHO (Chinese hamster ovary) cells, CHO-CFTR(+); conditions: glibenclamide 100 μM
Description: The patch-clamp technique consists in applying a glass pipette or a glass microelectrode to the surface of the cell. By applying slight touch, it is possible to cause the membrane to adhere to the glass. A small piece of membrane (patch) is thus isolated at the end of the pipette. This is the principle of patch-clamp (O. P. Hamill et al., Pflügers Arch., 1981, 391, 85-100; R. Penner, A Practical Guide to Patch Clamping, 1995, In Single Channel Recording, 2nd edition (Eds. B. Sakmann et al.) Plenum Press, New York, 3-30). To do this, the patch-clamp pipette must have a tip of the order of 1 μm in diameter and a resistance of the order of 1-5 MΩ. The resistance of a pipette or of a microelectrode makes it possible to assess the fineness of the tip: the greater the resistance, the finer the tip or the more the electrode is blocked. […] Interactions between the membrane and the glass will form, aided by a slight suction or negative pressure in the pipette. The quality of this interaction (or sealing) is also assessed by measuring the resistance between the glass and the membrane. To measure overall currents in the whole cell configuration, a sealing resistance of 1 GΩ is sufficient.
More specifically, culture dishes (cell support) are placed in an experimentation cell (volume 1 ml) on the platform of an inverted microscope (Nikon) equipped with phase-contrast lighting. The whole-cell configuration is used for recording the cell currents (Hamill et al., 1981). The experiments are carried out at ambient temperature (20-22° C.). The currents are amplified with an Axopatch 200B amplifier (Axon Instrument Ltd) having a 2-5 kHz low-pass filter (Bessel 6-pole filter), and recorded on the hard disk of a PC after digitization at 10-25 kHz. The pipettes are produced from glass tubes 1 mm in diameter (Clark Electromedical Instrument) in four steps with a horizontal drawing device (Bruwn Flaming 97, CA).
The pipettes, filled with an intracellular solution containing, in mM: 60 KCl; 80 NMDG ([…]); 10 HEPES; 5 EGTA; 1 CaCl2; 4 MgATP; 0.2 Na3GTP; pH 7.4, titrated with KOH), having a resistance of 5 MΩ. The potentials are expressed as the difference between the potential of the patch electrode and that of the bath. In the whole-cell configuration, they represent the membrane potential of the cell. The junction potentials that form between the recording electrode and the extracellular medium are eliminated before the contact of the electrode with the cell. […] The current-voltage relationships in the stationary state are determined using slow voltage ramps (20 mV/.s) under an imposed voltage condition. […]

T1 sequence (P13569 whole entry): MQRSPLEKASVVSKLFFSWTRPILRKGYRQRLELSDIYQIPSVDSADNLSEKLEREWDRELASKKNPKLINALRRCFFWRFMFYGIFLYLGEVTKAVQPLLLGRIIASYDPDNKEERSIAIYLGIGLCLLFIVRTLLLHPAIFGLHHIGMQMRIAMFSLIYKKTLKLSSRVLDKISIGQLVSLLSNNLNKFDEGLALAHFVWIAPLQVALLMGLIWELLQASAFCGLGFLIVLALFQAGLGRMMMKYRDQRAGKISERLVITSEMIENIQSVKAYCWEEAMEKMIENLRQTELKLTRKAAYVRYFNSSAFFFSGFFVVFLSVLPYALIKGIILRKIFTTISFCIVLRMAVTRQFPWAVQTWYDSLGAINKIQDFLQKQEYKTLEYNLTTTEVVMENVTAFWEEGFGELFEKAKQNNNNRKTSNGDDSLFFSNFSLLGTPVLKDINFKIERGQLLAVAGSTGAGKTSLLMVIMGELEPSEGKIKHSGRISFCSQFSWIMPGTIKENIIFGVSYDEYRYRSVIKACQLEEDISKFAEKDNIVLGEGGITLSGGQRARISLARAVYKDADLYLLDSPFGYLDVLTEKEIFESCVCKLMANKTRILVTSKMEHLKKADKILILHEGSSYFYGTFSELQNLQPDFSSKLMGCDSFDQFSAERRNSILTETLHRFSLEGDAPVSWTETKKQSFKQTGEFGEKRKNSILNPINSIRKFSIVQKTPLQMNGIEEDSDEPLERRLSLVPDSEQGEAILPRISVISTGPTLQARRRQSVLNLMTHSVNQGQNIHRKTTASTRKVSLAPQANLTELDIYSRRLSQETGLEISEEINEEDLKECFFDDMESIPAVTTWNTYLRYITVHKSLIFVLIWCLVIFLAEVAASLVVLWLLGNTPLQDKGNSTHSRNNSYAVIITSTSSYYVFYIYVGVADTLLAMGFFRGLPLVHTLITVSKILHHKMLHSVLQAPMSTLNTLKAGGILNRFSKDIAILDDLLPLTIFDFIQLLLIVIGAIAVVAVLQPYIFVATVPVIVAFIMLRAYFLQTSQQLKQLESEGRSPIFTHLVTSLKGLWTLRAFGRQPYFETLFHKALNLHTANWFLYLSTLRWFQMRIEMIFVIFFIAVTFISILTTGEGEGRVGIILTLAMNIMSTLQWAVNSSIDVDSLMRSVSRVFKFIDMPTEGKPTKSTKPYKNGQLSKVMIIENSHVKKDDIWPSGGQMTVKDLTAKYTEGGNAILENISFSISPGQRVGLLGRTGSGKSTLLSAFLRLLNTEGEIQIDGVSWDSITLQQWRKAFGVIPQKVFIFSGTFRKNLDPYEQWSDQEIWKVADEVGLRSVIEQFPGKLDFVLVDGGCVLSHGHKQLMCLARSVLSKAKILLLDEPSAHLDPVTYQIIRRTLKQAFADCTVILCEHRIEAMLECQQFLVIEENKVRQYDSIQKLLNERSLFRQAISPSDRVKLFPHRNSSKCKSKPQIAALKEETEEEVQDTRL
T2 sequence (P13569 with tags, fused parts or gaps DEL508-508): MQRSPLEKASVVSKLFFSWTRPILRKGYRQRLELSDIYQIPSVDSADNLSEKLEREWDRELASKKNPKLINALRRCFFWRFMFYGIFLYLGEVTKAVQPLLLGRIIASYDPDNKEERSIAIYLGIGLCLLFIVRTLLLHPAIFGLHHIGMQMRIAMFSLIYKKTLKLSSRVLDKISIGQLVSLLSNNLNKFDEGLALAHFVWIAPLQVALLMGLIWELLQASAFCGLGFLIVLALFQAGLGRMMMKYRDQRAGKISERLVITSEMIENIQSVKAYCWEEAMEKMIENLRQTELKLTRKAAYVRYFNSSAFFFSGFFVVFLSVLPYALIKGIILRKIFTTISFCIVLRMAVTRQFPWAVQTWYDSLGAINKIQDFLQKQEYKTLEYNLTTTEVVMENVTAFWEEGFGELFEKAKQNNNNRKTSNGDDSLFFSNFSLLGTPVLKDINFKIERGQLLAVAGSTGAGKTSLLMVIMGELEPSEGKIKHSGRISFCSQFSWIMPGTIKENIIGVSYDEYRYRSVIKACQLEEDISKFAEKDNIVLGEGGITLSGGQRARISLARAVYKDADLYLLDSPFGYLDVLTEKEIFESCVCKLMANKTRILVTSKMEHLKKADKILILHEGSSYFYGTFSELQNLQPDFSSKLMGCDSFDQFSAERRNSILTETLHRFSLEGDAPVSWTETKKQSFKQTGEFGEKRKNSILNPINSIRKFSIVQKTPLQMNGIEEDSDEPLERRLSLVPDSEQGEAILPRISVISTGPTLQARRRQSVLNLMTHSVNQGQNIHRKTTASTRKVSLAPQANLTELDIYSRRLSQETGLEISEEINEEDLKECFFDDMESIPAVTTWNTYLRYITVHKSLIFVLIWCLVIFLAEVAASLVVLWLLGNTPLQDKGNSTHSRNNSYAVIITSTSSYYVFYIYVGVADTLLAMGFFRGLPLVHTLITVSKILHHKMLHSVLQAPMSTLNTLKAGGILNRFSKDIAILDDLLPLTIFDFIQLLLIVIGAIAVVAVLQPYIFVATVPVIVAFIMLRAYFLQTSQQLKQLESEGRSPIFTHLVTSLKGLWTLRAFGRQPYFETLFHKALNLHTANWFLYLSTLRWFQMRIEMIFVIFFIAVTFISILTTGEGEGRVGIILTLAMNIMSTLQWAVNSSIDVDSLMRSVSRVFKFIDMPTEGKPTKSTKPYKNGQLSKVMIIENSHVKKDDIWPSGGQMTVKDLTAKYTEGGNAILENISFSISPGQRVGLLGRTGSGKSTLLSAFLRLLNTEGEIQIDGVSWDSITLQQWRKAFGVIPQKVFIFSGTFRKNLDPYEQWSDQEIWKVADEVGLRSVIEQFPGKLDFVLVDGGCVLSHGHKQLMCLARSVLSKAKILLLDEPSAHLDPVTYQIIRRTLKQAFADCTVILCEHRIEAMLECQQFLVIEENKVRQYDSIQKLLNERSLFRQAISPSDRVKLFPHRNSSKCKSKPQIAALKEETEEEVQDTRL
T3 sequence (P13569 whole entry): as the sequence (P13569 whole entry) above

With `CNc1ccc2oc(C[C@H]3O[C@@]4(CC[C@H]3C)O[C@H]([C@H](C)C(=O)c3ccc[nH]3)[C@H](C)C[C@H]4C)nc2c1C(=O)O` [A23187, reference compound] the “effect on basal level of 125I efflux in cells not expressing CFTR” value (CHO-CFTR(-) cells) was “has no effect” and the “activation of CFTR (125I efflux), in words” value (“activation of CFTR … in words” below) (CFTR channel [1]; CHO-CFTR(+) cells) was “has no effect”.
`O=S(=O)(O)c1cc(N=C=S)ccc1C=Cc1ccc(N=C=S)cc1S(=O)(=O)O` [DIDS, 4,4′-diisothiocyanatostilbene-2,2′-disulfonic acid, reference compound] was tested, and the “effect of inhibitor on CFTR-ΔF508 activation by octan-1-ol” value [2] was “insensitive” and the “effect of inhibitor on octan-1-ol-activated efflux” value [3] was “has no effect”.
With `C=C[C@@]1(C)CC(=O)[C@]2(O)[C@@]3(C)[C@@H](O)CCC(C)(C)[C@@H]3[C@H](O)[C@H](OC(C)=O)[C@@]2(C)O1` [FSK, forskolin, reference compound] the EC50 (CFTR channel [1]; EC50 of activation of CFTR (125I efflux rate constant), CHO-CFTR(+) cells, FSK 0.1 to 5 μM) was ~500 nM.
With `O=S(=O)(NCCNC/C=C/c1ccc(Br)cc1)c1cccc2cnccc12` [H-89, reference compound] the “effect of inhibitor on activated 125I efflux” value (CFTR channel [1]) was “inhibited”.
For `CCCCCCCCCCO` [decan-1-ol], the “order of activation of CFTR by n-alkanols” value (shortened to “order of activation of CFTR”) (CFTR channel [1]) was “hexan-1-ol<heptan-1-ol<octan-1-ol<octan-2-ol<decan-1-ol” and the “activation of CFTR … in words” value (CFTR channel [1]; CHO-CFTR(+) cells) was “significantly activates the CFTR channel”.
For `CCO` [ethanol, reference compound], the “effect on intracellular cAMP level” value (intracellular cAMP level) was “neither octan-1-ol, hexan-1-ol or ethanol modifies the basal cAMP level” and the “activation of CFTR … in words” value (CFTR channel [1]; CHO-CFTR(+) cells) was “do not activate the CFTR channel”.
In the case of `COc1ccc(Cl)cc1C(=O)NCCc1ccc(S(=O)(=O)NC(=O)NC2CCCCC2)cc1` [glibenclamide, reference compound], the “effect of glibenclamide on FSK- or octan-1-ol-induced current” value (CFTR channel [4]) is reported as “completely inhibited”, the “effect of inhibitor on activated 125I efflux” value (CFTR channel [1]) is reported as “completely inhibited” and the “effect of inhibitor on CFTR-ΔF508 activation by octan-1-ol” value [2] is reported as “inhibited”. For the same molecule, the “effect of inhibitor on octan-1-ol-activated efflux” value [3] was “strongly blocked”.
In the case of `CCCCCCCO` [heptan-1-ol], the “order of activation of CFTR” value (CFTR channel [1]) is reported as “hexan-1-ol<heptan-1-ol<octan-1-ol<octan-2-ol<decan-1-ol” and the “activation of CFTR … in words” value (CFTR channel [1]; CHO-CFTR(+) cells) is reported as “increase in activation of CFTR”.
For `CCCCCCO` [hexan-1-ol], the “effect on intracellular cAMP level” value (intracellular cAMP level) was “neither octan-1-ol, hexan-1-ol or ethanol modifies the basal cAMP level”, the “order of activation of CFTR” value (CFTR channel [1]) was “hexan-1-ol<heptan-1-ol<octan-1-ol<octan-2-ol<decan-1-ol” and the “activation of CFTR … in words” value (CFTR channel [1]; CHO-CFTR(+) cells) was “significantly activates the CFTR channel”.
With `CO` [methanol, reference compound] the “activation of CFTR … in words” value (CFTR channel [1]; CHO-CFTR(+) cells) was “not significantly different from the unstimulated efflux”.
In the case of `CCCCCCC(C)O` (stereo not drawn) [octan-2-ol], the “order of activation of CFTR” value (CFTR channel [1]) is reported as “hexan-1-ol<heptan-1-ol<octan-1-ol<octan-2-ol<decan-1-ol” and the “activation of CFTR … in words” value (CFTR channel [1]; CHO-CFTR(+) cells) is reported as “also activates the CFTR protein”.
With butan-1-ol [reference compound] the “activation of CFTR … in words” value (CFTR channel [1]; CHO-CFTR(+) cells) was “not significantly different from the unstimulated efflux” and the “activation of CFTR … in words” value (CFTR channel [1]; CHO-CFTR(+) cells, listed as butanol) was “do not activate the CFTR channel”.
